Test results from patent US12552758B2, “Inhibitors of MLH1 and/or PMS2 for cancer treatment” (NeoPhore Limited, priority 2020, dated 2026).

Legend:
[1] = target: recombinant N-terminal PMS2 (residues 1-365) (Homo sapiens (Human), UniProt P54278); test: Fluorescence polarisation assay for PMS2; assay type: binding; conditions: FP probe displacement; 10 nM N-terminal PMS2, 5 nM probe compound, read after 1 hour
Description: Fluorescence Polarisation Assay for PMS2
(§1) Test compounds, as 10 mM DMSO stocks, were dispensed into a Black Fluotrac 200 384 well medium binding plate (Greiner Bio-One, item number 781076) using a Labcyte Echo acoustic liquid handler. For single point screening, test compounds were added to wells in columns 1-22 whilst DMSO was added to wells in columns 23 and 24 in order to normalise the plate. For potency determination, serial dilutions of test compounds were added to wells in columns 3-22 and DMSO volume was normalised across the plate.
20 μL assay buffer was added to all wells in columns 1 and 24 (column 24 only for single point screening) using a MultiDrop Combi (ThermoFisher). Plates were centrifuged for 1 minute at 250×g and were incubated at room temperature for 30 minutes prior to the addition of 20 μL of 2×([…]) of 5-((5-(4-((2-(2,4-dihydroxy-5-isopropylbenzoyl)isoindolin-5-yl)methyl)piperazin-1-yl)pentyl)carbamoyl)-2-(6-(dimethylamino)-3-(dimethyliminio)-3H-xanthen-9-yl)benzoate (referred to hereinafter as “probe compound”) in assay buffer (prepared from a 100 μM DMSO stock) with a MultiDrop Combi (ThermoFisher). The final concentration of N-terminal PMS2 was 10 nM and the final concentration of probe compound was 5 nM.
(§2) Compound plates were centrifuged for 1 minute at 250×g for 1 minute and were incubated at room temperature for 1 hour before being read on a PheraStar FSX (fitted with 384-well aperture spoon and 540 590 590 FP optic module). The gain and focus were adjusted before each plate was read so that the polarisation of a no enzyme control (column 24) was equal to 35 mP. Data were normalised against the no inhibitor controls (column 23) and no enzyme controls (column 24).

[2] = target: recombinant N-terminal MLH1 (residues 15-340) (Homo sapiens (Human), UniProt P40692); test: Fluorescence polarisation assay for MLH1 (protocol for all Examples except Examples 64, 76, 90 and 95); assay type: binding; conditions: FP probe displacement; 100 nM N-terminal MLH1, 5 nM probe compound, read after 15 minutes; all Examples except 64, 76, 90 and 95
Chain of recombinant N-terminal MLH1 (residues 15-340) (P40692 15-340): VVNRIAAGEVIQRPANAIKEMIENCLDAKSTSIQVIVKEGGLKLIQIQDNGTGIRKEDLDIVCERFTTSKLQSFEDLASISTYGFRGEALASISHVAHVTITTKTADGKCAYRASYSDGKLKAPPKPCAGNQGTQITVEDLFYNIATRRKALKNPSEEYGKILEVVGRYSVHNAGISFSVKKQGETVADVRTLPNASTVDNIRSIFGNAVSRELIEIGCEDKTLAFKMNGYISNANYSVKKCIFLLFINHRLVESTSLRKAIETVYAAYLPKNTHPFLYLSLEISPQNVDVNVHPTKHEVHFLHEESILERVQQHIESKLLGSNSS
Description: Fluorescence Polarisation Assay for MLH1 (Protocol for all Examples Except Examples 64, 76, 90 and 95)
as §1
20 μL assay buffer was added to all wells in columns 1 and 24 (column 24 only for single point screening) using a MultiDrop Combi (ThermoFisher). Plates were centrifuged for 1 minute at 250×g and were incubated at room temperature for 30 minutes prior to the addition of 20 μL of 2×(10 nM) of 5-((5-(4-((2-(2,4-dihydroxy-5-isopropylbenzoyl)isoindolin-5-yl)methyl)piperazin-1-yl)pentyl)carbamoyl)-2-(6-(dimethylamino)-3-(dimethyliminio)-3H-xanthen-9-yl)benzoate (referred to hereinafter as “probe compound”) in assay buffer (prepared from a 100 μM DMSO stock) with a MultiDrop Combi (ThermoFisher). The final concentration of N-terminal MLH1 was 100 nM and the final concentration of probe compound was 5 nM.
as §2, with “15 minutes” for “1 hour”

Chain of recombinant N-terminal PMS2 (residues 1-365) (P54278 1-365): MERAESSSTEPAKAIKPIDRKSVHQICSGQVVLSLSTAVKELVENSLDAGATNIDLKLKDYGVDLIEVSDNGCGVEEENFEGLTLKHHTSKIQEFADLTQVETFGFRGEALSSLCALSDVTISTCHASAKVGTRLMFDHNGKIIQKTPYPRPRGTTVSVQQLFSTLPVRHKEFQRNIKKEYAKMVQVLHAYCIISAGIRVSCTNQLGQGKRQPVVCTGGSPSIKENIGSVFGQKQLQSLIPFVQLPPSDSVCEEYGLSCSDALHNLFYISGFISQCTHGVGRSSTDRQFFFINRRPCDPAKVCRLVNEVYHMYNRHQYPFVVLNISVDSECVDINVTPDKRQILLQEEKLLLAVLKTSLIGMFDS

IC50 [1] [µM] | IC50 [2] [µM] | SMILES
< 1 | 1 to 10 | COc1cc2c(cc1OC)CN(C(=O)c1c(O)cc(O)cc1OC(C)c1ccccc1)C2 (centres unmarked) [Example 29, [2,4-dihydroxy-6-(1-phenylethoxy)phenyl]-(5,6-dimethoxyisoindolin-2-yl)methanone]
< 1 | > 10 | Cc1cccc(COc2c(C)c(O)cc(O)c2C(=O)N2Cc3cccnc3C2)c1 [Example 31, 5,7-dihydropyrrolo[3,4-b]pyridin-6-yl-[4,6-dihydroxy-3-methyl-2-(m-tolylmethoxy)phenyl]methanone]
< 1 | 1 to 10 | Cc1cccc(COc2cc(O)cc(O)c2C(=O)N2Cc3cccnc3C2)c1 [Example 32, 5,7-dihydropyrrolo[3,4-b]pyridin-6-yl-[2,4-dihydroxy-6-(m-tolylmethoxy)phenyl]methanone]
1 to 10 | > 10 | Cc1c(O)cc(O)c(C(=O)N2Cc3cccnc3C2)c1OCc1ccccn1 [Example 33, 5,7-dihydropyrrolo[3,4-b]pyridin-6-yl-[4,6-dihydroxy-3-methyl-2-(2-pyridylmethoxy)phenyl]methanone]
1 to 10 | > 10 | Cc1c(O)cc(O)c(C(=O)N2Cc3ccccc3C2)c1OCc1ccccn1 [Example 34, [4,6-dihydroxy-3-methyl-2-(2-pyridylmethoxy)phenyl]-isoindolin-2-yl-methanone]
1 to 10 | 1 to 10 | O=C(c1c(O)cc(O)cc1OCc1ccccn1)N1Cc2cccnc2C1 [Example 35, 5,7-dihydropyrrolo[3,4-b]pyridin-6-yl-[2,4-dihydroxy-6-(2-pyridylmethoxy)phenyl]methanone]
< 1 | > 10 | Cc1c(O)cc(O)c(C(=O)N2CCc3ccccc3C2)c1OCc1ccccc1 [Example 36, (2-benzyloxy-4,6-dihydroxy-3-methyl-phenyl)-(3,4-dihydro-1H-isoquinolin-2-yl)methanone]
1 to 10 | 1 to 10 | O=C(c1c(O)cc(O)cc1OCc1ccccn1)N1Cc2ccccc2C1 [Example 37, [2,4-dihydroxy-6-(2-pyridylmethoxy)phenyl]-isoindolin-2-yl-methanone]
< 1 | > 10 | Cc1c(O)cc(O)c(C(=O)N2Cc3cccc(CO)c3C2)c1OCc1ccccc1 [Example 39, (2-benzyloxy-4,6-dihydroxy-3-methyl-phenyl)-[4-(hydroxymethyl)isoindolin-2-yl]methanone]
< 1 | > 10 | Cc1c(O)cc(O)c(C(=O)N2Cc3ccc(CN4CCN(C)CC4)cc3C2)c1OCc1ccccc1 [Example 40, (2-benzyloxy-4,6-dihydroxy-3-methyl-phenyl)-[5-[(4-methylpiperazin-1-yl)methyl]isoindolin-2-yl]methanone]
< 1 | > 10 | COc1ccc2c(c1)CCN(C(=O)c1c(O)cc(O)c(C)c1OCc1ccccc1)C2 [Example 41, (2-benzyloxy-4,6-dihydroxy-3-methyl-phenyl)-(6-methoxy-3,4-dihydro-1H-isoquinolin-2-yl)methanone]
1 to 10 | > 10 | Cc1c(O)cc(O)c(C(=O)N2CCc3ccncc3C2)c1OCc1ccccc1 [Example 42, (2-benzyloxy-4,6-dihydroxy-3-methyl-phenyl)-(3,4-dihydro-1H-2,7-naphthyridin-2-yl)methanone]
1 to 10 | > 10 | Cc1c(O)cc(O)c(C(=O)N2CCc3cnccc3C2)c1OCc1ccccc1 [Example 43, (2-benzyloxy-4,6-dihydroxy-3-methyl-phenyl)-(3,4-dihydro-1H-2,6-naphthyridin-2-yl)methanone]
< 1 | > 10 | Cc1cccc(COc2c(C)c(O)cc(O)c2C(=O)N2CCc3ccccc3C2)c1 [Example 44, 3,4-dihydro-1H-isoquinolin-2-yl-[4,6-dihydroxy-3-methyl-2-(m-tolylmethoxy)phenyl]methanone]
> 10 | > 10 | COc1ccc2c(c1)CCN(C(=O)c1c(O)cc(O)c(C)c1OCc1ccccn1)C2 [Example 47, [4,6-dihydroxy-3-methyl-2-(2-pyridylmethoxy)phenyl]-(6-methoxy-3,4-dihydro-1H-isoquinolin-2-yl)methanone]
< 1 | > 10 | Cc1c(O)cc(O)c(C(=O)N2CCc3ccccc3C2)c1OCc1ccc(F)cc1 [Example 48, 3,4-dihydro-1H-isoquinolin-2-yl-[2-[(4-fluorophenyl)methoxy]-4,6-dihydroxy-3-methyl-phenyl]methanone]
< 1 | 1 to 10 | CN1CCN(Cc2ccc3c(c2)CN(C(=O)c2c(O)cc(O)cc2OCc2ccccc2)C3)CC1 [Example 49, (2-(benzyloxy)-4,6-dihydroxyphenyl)(5-((4-methylpiperazin-1-yl)methyl)isoindolin-2-yl)methanone]
< 1 | > 10 | Cc1c(O)cc(O)c(C(=O)N2Cc3cccc(N)c3C2)c1OCc1ccccc1 [Example 50, (4-aminoisoindolin-2-yl)(2-(benzyloxy)-4,6-dihydroxy-3-methylphenyl)methanone]
< 1 | > 10 | C=Cc1cccc2c1CN(C(=O)c1c(O)cc(O)c(C)c1OCc1ccccc1)C2 [Example 51, (2-(benzyloxy)-4,6-dihydroxy-3-methylphenyl)(4-vinylisoindolin-2-yl)methanone]
< 1 | > 10 | COc1ccc2c(c1)CN(C(=O)c1c(O)cc(O)c(C)c1OCc1ccccc1)CC2 [Example 52, (2-(benzyloxy)-4,6-dihydroxy-3-methylphenyl)(7-methoxy-3,4-dihydroisoquinolin-2(1H)-yl)methanone]
1 to 10 | > 10 | Cc1c(O)cc(O)c(C(=O)N2CCc3cccnc3C2)c1OCc1ccccc1 [Example 53, (2-(benzyloxy)-4,6-dihydroxy-3-methylphenyl)(5,8-dihydro-1,7-naphthyridin-7(6H)-yl)methanone]
1 to 10 | > 10 | Cc1c(O)cc(O)c(C(=O)N2CCc3ncccc3C2)c1OCc1ccccc1 [Example 54, (2-(benzyloxy)-4,6-dihydroxy-3-methylphenyl)(7,8-dihydro-1,6-naphthyridin-6(5H)-yl)methanone]
1 to 10 | > 10 | Cc1c(O)cc(O)c(C(=O)N2CCc3ncncc3C2)c1OCc1ccccc1 [Example 55, (2-(benzyloxy)-4,6-dihydroxy-3-methylphenyl)(7,8-dihydropyrido[4,3-d]pyrimidin-6(5H)-yl)methanone]
1 to 10 | > 10 | Cc1c(O)cc(O)c(C(=O)N2CCc3cncnc3C2)c1OCc1ccccc1 [Example 56, (2-(benzyloxy)-4,6-dihydroxy-3-methylphenyl)(5,8-dihydropyrido[3,4-d]pyrimidin-7(6H)-yl)methanone]
> 10 | > 10 | Cc1c(O)cc(O)c(C(=O)N2CCc3ccccc3C2)c1OCc1ccn(C)n1 [Example 57, (3,4-dihydroisoquinolin-2(1H)-yl)(4,6-dihydroxy-3-methyl-2-((1-methyl-1H-pyrazol-3-yl)methoxy)phenyl)methanone]
1 to 10 | 1 to 10 | O=C(c1c(O)cc(O)cc1OCc1ccccc1)N1CCc2ccccc2C1 [Example 58, (2-(benzyloxy)-4,6-dihydroxyphenyl)(3,4-dihydroisoquinolin-2(1H)-yl)methanone]
< 1 | > 10 | Cc1c(O)cc(O)c(C(=O)N2Cc3ccccc3C2)c1OCc1ccccc1 [Example 59, (2-(benzyloxy)-4,6-dihydroxy-3-methylphenyl)(isoindolin-2-yl)methanone]
< 1 | > 10 | Cc1c(O)cc(O)c(C(=O)N2CCc3ccc(CN(C)C)cc3C2)c1OCc1ccccc1 [Example 60, (2-(benzyloxy)-4,6-dihydroxy-3-methylphenyl)(7-((dimethylamino)methyl)-3,4-dihydroisoquinolin-2(1H)-yl)methanone]
